Like-named read-outs stand apart in the source and are kept apart here.
Tests used:
[1] = test system: late blight pathogen, Phytophthora infestans; format: in vivo
[2] = test system: gray mold pathogen, Bouytis cinerea; format: in vivo
[3] = test system: anthracnose pathogen, Colletotrichum orbiculare; format: in vivo
[4] = test system: powdery mildew pathogen, Blumeria graminis f. sp. hordei; test: In vivo control of barley powdery mildew on barley seedlings
[5] = test system: powdery mildew pathogen, Sphaerotheca fidigenea; test: In vivo control of cucumber powdery mildew (natural infestation in greenhouse); settings: for Control value (%) The 1st Exp. cucumber powdery mildew: 1st experiment; for Control value (%) The 2nd Exp. cucumber powdery mildew: 2nd experiment
Method: The culture solution was diluted with distilled water at a ratio of 1:10, 1:25, 1:50, 1:100 and 1:200. Each diluent was mixed with 250 μg/ml of Tween 20, and sprayed to leaves of the 7th leaf stage of cucumbers.
Topseed (Greenbiotech Co., Ltd.) known as a microbial fungicide for controlling powdery mildew was diluted with distilled water at a ratio of 1:10, 1:25, 1:50, 1:100 and 1:200, and each diluent and flusilazole (Dongbu Hannong Chemical Co., Ltd.) as a positive control were sprayed to cucumber plants to prepare a comparative group. The cucumbers treated with Tween 20 solution alone were employed as a control group.
1 week after spraying, each diluent of the culture solution and comparative sample was sprayed to the target cucumbers second time. 1 week after further spraying, effect on controlling powdery mildew was assessed according to the same method as described in Example 3. The cucumbers were allowed to be infested naturally from a resident powdery mildew pathogen, Sphaerotheca fidigenea in a greenhouse.

N#Cc1c(Cl)c(Cl)c(Cl)c(C#N)c1Cl [Chlrothalonil, chlrothalonil]
Control value (%) Tomato late blight ([1]; 50 μg/ml): 89%
Control value (%) Tomato late blight ([1]; 100 μg/ml): 100%

CN(C)S(=O)(=O)N(SC(F)(Cl)Cl)c1ccccc1 [Dichlofluanid, dichlofluanid]
Control value (%) Tomato gray mold ([2]; 40 μg/ml): 86%
Control value (%) Tomato gray mold ([2]; 80 μg/ml): 97%

N#Cc1sc2c(=O)c3ccccc3c(=O)c=2sc1C#N [Dithianon, dithianon]
Control value (%) Cucumber anthracnose ([3]; 10 μg/ml): 80%
Control value (%) Cucumber anthracnose ([3]; 100 μg/ml): 100%

CCCCNC(=O)n1c(NC(=O)OC)nc2ccccc21 [Benomyl, benomyl]
Control value (%) Barley powdery mildew ([4]; 1 μg/ml): 52%
Control value (%) Barley powdery mildew ([4]; 100 μg/ml): 100%

C[Si](Cn1cncn1)(c1ccc(F)cc1)c1ccc(F)cc1 [Flusilazole, flusilazole]
Control value (%) The 1st Exp. cucumber powdery mildew ([5]; 10 μg/ml): 97%
Control value (%) The 2nd Exp. cucumber powdery mildew ([5]; 10 μg/ml): 97%
Control value (%) The 1st Exp. cucumber powdery mildew ([5]; 30 μg/ml): 99%
Control value (%) The 2nd Exp. cucumber powdery mildew ([5]; 30 μg/ml): 99%

— patent publication US8202514B2, “Bacillus subtilis strain having antagonistic activity for controlling plant diseases” (Korea Research Institute of Chemical Technology, priority 2004, dated 2012)
